Source: the AptaBench aptamer set (doi:10.1093/nar/gkaf219)

Experiments:
Conditions in all cases: 10 mM Tris-HCl, pH 7.4
[1] = system: DNA aptamer or structured DNA CTTACGACAAGGGATGTTTGTTAGTGTGTCGGATCTATGTCGTAAG
[2] = system: DNA aptamer or structured DNA CTTACGACAAGGGATGTTTGTTAGTGTGTCGGTGCATTGTCGTAAG
[3] = system: DNA aptamer or structured DNA CTTACGACACAGGGGGGGGCTAGGGTGCGCGGAAGCTGGTCGTAAG
[4] = system: DNA aptamer or structured DNA CTTACGACCTAAGGGTCTGGAGTGGTTGTTATACGCTGGTCGTAAG
[5] = system: DNA aptamer or structured DNA CTTACGACGACCTATTGGGGGTAGTTATAGTTGGGTGAGTCGTAAG
[6] = system: DNA aptamer or structured DNA CTTACGACTAGGCGGGGGTCGGCCACCGAGGTGGGGTAGTCGTAAG
[7] = system: DNA aptamer or structured DNA CTTACGACTAGGTGGGGGTCGGCGCCGTAGGTGGGGTAGTCGTAAG
[8] = system: DNA aptamer or structured DNA CTTACGACTAGGTGTGGGTCGGCTCAATTCGGAGGGTAGTCGTAAG
[9] = system: DNA aptamer or structured DNA CTTACGACTAGTTCTGAGGAATCAACGTCGGTGTAGTTGTCGTAAG
[10] = system: DNA aptamer or structured DNA CTTACGACTTACTTTTGGGTTGTCTGGGTGGGAGGTATGTCGTAAG
[11] = system: DNA aptamer or structured DNA GGGACGACAAAAATGGAAGCATTGGTTGTTGGTGCTTTGTCGTCCC
[12] = system: DNA aptamer or structured DNA GGGACGACAGGGCACGTCTCGGCATCGAGGGTTTCGCGGTCGTCCC
[13] = system: DNA aptamer or structured DNA GGGACGACGCAAATGGAAGCATTGGTTGTGTTCACACTGCTGGGTCGTCCC
[14] = system: DNA aptamer or structured DNA GGGACGACGGGAAATGGAAGCATTGGTTGAGTTACTCTGCTCCTGTCGTCCC
[15] = system: DNA aptamer or structured DNA GGGACGACGGGATGGTAAGTGGCAGGTCGTTGGAATTTCTACTGTATCGTCGTCCC
[16] = system: DNA aptamer or structured DNA GGGACGACGGGATTCGGATCGTGGAACAGTGCCTCGTCGTCGTCCC
[17] = system: DNA aptamer or structured DNA GGGACGACGGGGGGCTTTAGGGTGTAGGAGTGGGGTGAGTCGTCCC
[18] = system: DNA aptamer or structured DNA TTCAAATCTTGCGAATTGGACTCAGAATGTGGGTTTGCCAGTCTAGATTTGAA
[19] = system: DNA aptamer or structured DNA CTTACGACCGACTTTTGGGTGTTCTGGGTGGGATGTGGGTCGTAAG
[20] = system: DNA aptamer or structured DNA CTTACGACGACCTAGTGGGGGTAGTTATAGTTGGGTGAGTCGTAAG
[21] = system: DNA aptamer or structured DNA GGGACGACCGCGTAGGGGAACACGCTTGCAGGGCTGAGGTCGTCCC
[22] = system: DNA aptamer or structured DNA GGGACGACGGCTTAGCAAAGCTAGTAGGGGTCCACGCTGTCGTCCC
[23] = system: DNA aptamer or structured DNA GGGACGACTAGCCGCGCGTTGTCCGACCCTTGGAAGTAGTCGTCCC
[24] = system: DNA aptamer or structured DNA GGGACGACTAGCCGTGGCGTTGTCCGAACCAGTGAGTAGTCGTCCC
[25] = system: DNA aptamer or structured DNA GGGACGACAAAATGGCAGCATTGGTGACGGAGTTGCTTGTCGTCCC
[26] = system: DNA aptamer or structured DNA GGGACGACAGGGATTCGCGGATTCGGAGAAAAGGGCTCGTACGTCGTCCC
[27] = system: DNA aptamer or structured DNA GGGACGACAGGGATTCGGTCTTGGTACATAGGGGCCTCGTCTGTCGTCCC
[28] = system: DNA aptamer or structured DNA GGGACGACGGCACGAGGTAATTCGTTGGTTGCACTGCGCTGGGAGGCAGTCGTCCC
[29] = system: DNA aptamer or structured DNA GGGACGACGGCACGGGGTTATTCGTTGGTTGCACTGCGCTGGGAGGCAGTCGTCCC
[30] = system: DNA aptamer or structured DNA GGGACGACGGGGATTCGCGGATTCATGGAAAAGGGCTCGTCTGTCGTCCC
[31] = system: DNA aptamer or structured DNA GGGACGACGGGGATTCGGTTCGTCATTTGGCAGTGCCTCGTCTGTCGTCCC
[32] = system: DNA aptamer or structured DNA GGGACGACTAGTGCCTTCGCGTTGTTCAGGAATCCGGTTCTGTCGTCCC
[33] = system: DNA aptamer or structured DNA GGGACGACCAGGATTCGGTTCTTTGTAAATAGTGCCTCGTTGGTCGTCCC
[34] = system: DNA aptamer or structured DNA GGGACGACCGGACTTGGGTGGGTGCTGGGGCTTGGGCGGTCGTCCC
Wherever binding call is given: call rule not given here.

binding call [11]	binding call [12]	binding call [13]	binding call [15]	binding call [16]	binding call [1]	binding call [3]	binding call [19]	binding call [4]	binding call [20]	binding call [6]	binding call [8]	binding call [9]	binding call [21]	binding call [24]	binding call [26]	binding call [27]	Structure (SMILES)	binding call [14]	binding call [17]	binding call [18]	further results
–	no binding	–	–	no binding	binds	no binding	no binding	no binding	no binding	no binding	no binding	no binding	no binding	no binding	–	–	c1ccc([C@H]2CN3CCSC3=N2)cc1	–	–	–	binding call [5]: no binding; binding call [22]: no binding; binding call [23]: no binding
no binding	no binding	binds	binds	binds	no binding	no binding	no binding	–	–	no binding	–	no binding	no binding	no binding	no binding	no binding	C=C[C@H]1CN2CC[C@@H]1C[C@H]2[C@H](O)c1ccnc2ccc(OC)cc12	–	–	–	binding call [7]: no binding; binding call [25]: no binding; binding call [28]: no binding; binding call [29]: binds; binding call [30]: no binding; binding call [31]: no binding; binding call [32]: binds
no binding	no binding	binds	binds	no binding	binds	binds	no binding	no binding	no binding	–	no binding	no binding	no binding	no binding	no binding	no binding	CCN(CC)CCOC(=O)c1ccc(N)cc1	no binding	no binding	no binding	binding call [2]: no binding; binding call [33]: no binding; binding call [34]: no binding; binding call [30]: no binding; binding call [31]: no binding; binding call [32]: no binding

Structure (SMILES)	binding call [11]	binding call [12]	binding call [13]	binding call [15]	binding call [16]	binding call [1]	binding call [3]	binding call [19]	binding call [4]	binding call [20]	binding call [6]	binding call [8]	binding call [9]	binding call [21]	binding call [24]	binding call [26]	binding call [27]	binding call [14]	binding call [17]	binding call [18]	further results
COC(=O)[C@@H]1C2CCC(C[C@@H]1OC(=O)c1ccccc1)N2C (some centres undefined)	no binding	no binding	binds	no binding	no binding	–	–	–	–	–	–	–	–	–	–	–	–	no binding	no binding	no binding	Kd [1]: 115 nM; Kd [2]: 357 nM; Kd [3]: 155 nM; Kd [4]: 218 nM; Kd [5]: 353 nM; Kd [6]: 315 nM; Kd [7]: 467 nM; Kd [8]: 461 nM; Kd [9]: 33 nM; Kd [10]: 249 nM
